Reference: patent US20250296922A1, “POLYSUBSTITUTED PYRROLIDINE DERIVATIVE, PREPARATION METHOD THEREFOR AND USE THEREOF” (SHANGHAI WENNAI THERAPEUTICS CO LTD, priority 2023, published 2025)
Where two headings read alike, the source gives them in different places.

What was measured:
CYP3A-M = CYP3A-M (Homo sapiens, UniProt P08684); experiment: Human liver microsomal CYP inhibition test, CYP3A-M (midazolam); type: in vitro ADME; conditions: human liver microsomes 0.2 mg/mL; substrate Midazolam
Experimental: (§1) 3.1 Buffer solutions: (1) potassium phosphate 100 mM; (2) magnesium chloride, 33 mM;
(§2) 3.2.3 Reservoir for compounds to be tested: Dissolving the compounds to be tested in DMSO to form a 10 mM DMSO solution.
(§3) 3.4.1 Preparation of human liver microsomal working solution (1.27×) (final concentration: 0.2 mg/mL)
(§4) 3.5.3 Adding 20 μL of substrate solution to the appropriate wells and 20 μL of potassium phosphate buffer to the blank wells;
(§5) 3.5.4 Adding 2 μL of different concentrations of target compounds (final concentrations from 0.05 μM to 50 μM, 7 concentrations in total) or standard inhibitors to each well, with 2 μL of methanol solution in the non-inhibitor and blank wells;
(§6) 3.5.5 Adding 1.012 mL of liver microsomes to 78.988 mL of potassium phosphate buffer, then adding 158 μL of liver microsomes solution to all wells; preheating the well plate for 10 minutes in a 37° C. water bath;
(§7) 3.5.6 Weighing 129.1 mg NADPH (purchased from SyncoZymes Co. Ltd.) and adding to 15.0 mL of 33 Mm MgCl2 solution to give a 10 mM concentration, adding 20 μL to each well;
(§8) 3.5.7 Mixing and incubating the well plate in a 37° C. water bath for 10 minutes, then adding 400 μL of cold termination solution at the appropriate time point;
(§9) 3.5.8 Centrifuging the sample at 4000 rpm for 20 minutes to precipitate the protein. Transferring 200 μL of supernatant to 100 μL of HPLC water and shaking for 10 minutes. The samples were analyzed by LC/MS/MS;
(§10) Percentage inhibition was plotted for blank control and different concentrations of target compounds by using XL fitting or SigmaPlot and the data were analyzed by non-linear regression. IC50 values were determined by using either 3-parameter or 4-parameter logistic equations.

CYP2C9 = CYP2C9 (Homo sapiens (Human), UniProt P11712); experiment: Human liver microsomal CYP inhibition test, CYP2C9; type: in vitro ADME; conditions: human liver microsomes 0.2 mg/mL; substrate Diclofenac
Experimental: as §1, §2, §3, §4, §5, §6, §7, §8, §9, §10

CYP1A2 = CYP1A2 (Homo sapiens (Human), UniProt P05177); experiment: Human liver microsomal CYP inhibition test, CYP1A2; type: in vitro ADME
Experimental: as §1, §2, §3, §4, §5, §6, §7, §8, §9, §10

CYP2D6 = CYP2D6 (Homo sapiens (Human), UniProt P10635); experiment: Human liver microsomal CYP inhibition test, CYP2D6; type: in vitro ADME; conditions: human liver microsomes 0.2 mg/mL; substrate Dextromethorphan
Experimental: as §1, §2, §3, §4, §5, §6, §7, §8, §9, §10

[1] = Pharmacokinetic experiment, dog test, intravenous injection; type: in vivo; conditions: male Beagle, 0.5 mg/kg
From the text: 4.2.1 Abstract: Beagle was used as the test animal, the LC/MS/MS method was applied to determine the drug concentration in the plasma of Beagle at different points after intravenous injection of the compounds of the examples, to study the pharmacokinetic behavior of the compounds of the present invention in the Beagle, and to evaluate their pharmacokinetic characteristics.
4.2.2.2 Test animals: 4 male Beagles, provided by Jiangsu LingfuZhaoshengyuan Biotechnology Co. Fasting started at 5 p.m. on the day before drug administration, and the duration of fasting was no less than 12 hours, and food was resumed 4 hours after drug administration.
4.2.2.3 Drug Preparation: Weighed an amount of the test compound and prepared a completely clear solution with a final concentration of 1 mg/mL using a mixed solvent of DMSO: Solutol: Saline (5%: 5%: 90%).
4.2.2.4 Administration: a dose of 0.5 mg/kg, a volume of 0.5 mL/kg.
4.2.3 Test operation: 0.4 mL of blood samples were collected from the forelimb vein of male Beagles before and 5 min, 15 min, 30 min, 1 h, 2h, 4 h, 6h, 8 h, 10 h and 24 h after intravenous administration and placed in EDTA-K2 anticoagulant tubes. After blood samples were collected, they were placed in labelled centrifuge tubes in ice water bath and rapidly centrifuged to separate the plasma. Centrifugation conditions: 4000 rpm, 10 min, 4° C., and the plasma was placed at −70° C. or below for measurement.
Plasma samples were thawed at room temperature and 50 μL was added to 400 μL of acetonitrile containing the internal standard (40 ng/mL, terfenadine), vortexed for 1 min and then centrifuged at 15400 g for 10 min at 4° C. The supernatant was diluted 10-fold with 80% acetonitrile in water and 1 μL sample was injected for analysis.

[2] = Pharmacokinetic experiment, rat test, gavage administration; type: in vivo, SD rats; conditions: 10 mg/kg; for AUC(0-t) / Cmax: Sprague-Dawley, rat, plasma, po; for AUC(0-t): read-out: Area under the curve AUC0-t; for Cmax: read-out: blood concentration Cmax
From the text: 4.1.1 Abstract: SD rats were used as test animals, the LC/MS/MS method was applied to determine the drug concentration of the compounds of the Examples in plasma at different points after gavage administration to rats, to study the pharmacokinetic behavior of the compounds of the present invention in rats, and to evaluate their pharmacokinetic characteristics.
4.1.2.2 Test animals: 6 male SD rats and 6 female rats, all provided by Shanghai Jihui Laboratory Animal Breeding Co. The animals were fasted for at least 12 hours before administration and food supply was resumed 4 hours after administration.
4.1.2.3 Drug Preparation: Weighed an amount of the test compound separately and prepared a completely clear solution with a final concentration of 1 mg/mL using a mixed solvent of DMSO: Solutol: Saline (5%: 5%: 90%).
4.1.2.4 Administration: a dose of 10 mg/kg, a volume of 10 mL/kg.
4.1.3 Test operation: 0.1 mL blood samples were collected from the orbit before and 15 min, 30 min, 1 h, 2h, 4 h, 6h, 8 h, 10h, 24 h after the administration of the drug to male rats and placed in EDTA-K2 anticoagulant tubes. 0.03 mL blood samples were collected from the orbit before and 0.5h, 1 h, 2h, 3 h, 6h, 10 h and 24 h after administration to female rats. After blood samples were collected, they were placed in labelled centrifuge tubes in ice-water bath and rapidly centrifuged to separate the plasma at 4000 rpm for 10 min at 4° C. The plasma was stored at −70° C. or below for measurement.
The plasma samples were thawed at room temperature and 50 μL was added to 400 μL of acetonitrile containing the internal standard (40 ng/mL, terfenadine), vortexed for 1 min and centrifuged for 10 min at 4° C. and 15,400 g. 1 μL of the supernatant was injected for analysis.

CYP3A (printed CYP3A-M) = CYP3A (printed CYP3A-M) (Homo sapiens, UniProt P08684); experiment: Human liver microsomal CYP inhibition test, CYP3A-M (midazolam); type: in vitro ADME
Experimental: as §1, §2, §3, §4, §5, §6, §7, §8, §9, §10

CYP2C19 = CYP2C19 (Homo sapiens (Human), UniProt P33261); experiment: Human liver microsomal CYP inhibition test, CYP2C19; type: in vitro ADME; conditions: human liver microsomes 0.2 mg/mL; substrate S-mephenytoin
Experimental: as §1, §2, §4, §5, §6, §7, §8, §9, §10

[3] = human liver microsomes 0.2 mg/mL, substrate Phenacetin, read-out: IC50 (μM) CYP1A2

CYP2C9, sequence (P11712 whole entry): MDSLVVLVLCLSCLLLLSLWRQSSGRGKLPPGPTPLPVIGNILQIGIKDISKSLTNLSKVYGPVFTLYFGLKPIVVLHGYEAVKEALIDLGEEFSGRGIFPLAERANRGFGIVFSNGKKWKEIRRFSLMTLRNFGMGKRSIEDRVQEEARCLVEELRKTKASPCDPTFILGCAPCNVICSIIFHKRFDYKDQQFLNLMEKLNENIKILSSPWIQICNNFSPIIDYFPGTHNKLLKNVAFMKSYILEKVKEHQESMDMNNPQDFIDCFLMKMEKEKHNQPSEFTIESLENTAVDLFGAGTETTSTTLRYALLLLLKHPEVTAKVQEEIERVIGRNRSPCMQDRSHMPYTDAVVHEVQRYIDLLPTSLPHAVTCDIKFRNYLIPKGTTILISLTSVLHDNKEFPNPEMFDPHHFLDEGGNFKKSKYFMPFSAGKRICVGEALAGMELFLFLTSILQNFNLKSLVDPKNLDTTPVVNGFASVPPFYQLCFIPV
CYP2C19, sequence (P33261 whole entry): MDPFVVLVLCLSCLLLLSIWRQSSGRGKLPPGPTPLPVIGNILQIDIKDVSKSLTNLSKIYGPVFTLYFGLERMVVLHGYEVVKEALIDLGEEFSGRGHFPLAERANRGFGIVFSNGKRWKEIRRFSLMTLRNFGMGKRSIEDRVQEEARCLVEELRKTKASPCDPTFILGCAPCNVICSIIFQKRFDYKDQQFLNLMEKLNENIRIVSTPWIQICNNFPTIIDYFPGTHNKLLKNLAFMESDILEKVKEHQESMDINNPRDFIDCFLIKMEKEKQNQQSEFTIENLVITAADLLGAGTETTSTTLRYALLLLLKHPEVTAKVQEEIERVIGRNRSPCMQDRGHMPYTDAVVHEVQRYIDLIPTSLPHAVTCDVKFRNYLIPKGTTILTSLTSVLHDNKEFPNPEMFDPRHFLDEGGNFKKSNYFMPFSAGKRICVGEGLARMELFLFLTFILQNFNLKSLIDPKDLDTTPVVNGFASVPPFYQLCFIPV
CYP1A2, sequence (P05177 whole entry): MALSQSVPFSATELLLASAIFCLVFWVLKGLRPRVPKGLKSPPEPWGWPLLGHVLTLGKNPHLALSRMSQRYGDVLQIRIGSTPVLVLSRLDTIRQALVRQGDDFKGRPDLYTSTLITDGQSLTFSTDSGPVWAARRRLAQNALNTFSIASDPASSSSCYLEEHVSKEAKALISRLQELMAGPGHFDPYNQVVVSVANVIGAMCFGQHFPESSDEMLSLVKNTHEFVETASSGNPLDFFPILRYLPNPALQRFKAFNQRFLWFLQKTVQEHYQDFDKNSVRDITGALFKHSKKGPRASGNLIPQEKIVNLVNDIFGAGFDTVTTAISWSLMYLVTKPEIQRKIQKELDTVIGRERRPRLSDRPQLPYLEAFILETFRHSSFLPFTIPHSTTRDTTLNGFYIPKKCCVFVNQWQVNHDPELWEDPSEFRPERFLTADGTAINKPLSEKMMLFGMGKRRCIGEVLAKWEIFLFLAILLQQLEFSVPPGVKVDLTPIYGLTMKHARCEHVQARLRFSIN
CYP2D6, sequence (P10635 whole entry): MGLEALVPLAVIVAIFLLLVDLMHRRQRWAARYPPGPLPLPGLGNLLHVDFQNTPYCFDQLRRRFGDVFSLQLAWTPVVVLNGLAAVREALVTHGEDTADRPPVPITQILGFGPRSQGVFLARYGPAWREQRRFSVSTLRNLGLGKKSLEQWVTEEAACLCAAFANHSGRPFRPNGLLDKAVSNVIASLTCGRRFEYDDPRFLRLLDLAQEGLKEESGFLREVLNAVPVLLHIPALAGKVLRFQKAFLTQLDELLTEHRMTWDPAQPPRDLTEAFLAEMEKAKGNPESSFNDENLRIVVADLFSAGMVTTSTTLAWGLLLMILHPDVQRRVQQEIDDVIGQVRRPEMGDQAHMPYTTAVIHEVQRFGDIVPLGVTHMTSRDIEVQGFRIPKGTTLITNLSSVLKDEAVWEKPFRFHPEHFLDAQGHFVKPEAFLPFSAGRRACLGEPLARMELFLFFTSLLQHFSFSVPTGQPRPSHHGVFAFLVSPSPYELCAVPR
CYP3A-M, sequence (P08684 2-503 limits assumed): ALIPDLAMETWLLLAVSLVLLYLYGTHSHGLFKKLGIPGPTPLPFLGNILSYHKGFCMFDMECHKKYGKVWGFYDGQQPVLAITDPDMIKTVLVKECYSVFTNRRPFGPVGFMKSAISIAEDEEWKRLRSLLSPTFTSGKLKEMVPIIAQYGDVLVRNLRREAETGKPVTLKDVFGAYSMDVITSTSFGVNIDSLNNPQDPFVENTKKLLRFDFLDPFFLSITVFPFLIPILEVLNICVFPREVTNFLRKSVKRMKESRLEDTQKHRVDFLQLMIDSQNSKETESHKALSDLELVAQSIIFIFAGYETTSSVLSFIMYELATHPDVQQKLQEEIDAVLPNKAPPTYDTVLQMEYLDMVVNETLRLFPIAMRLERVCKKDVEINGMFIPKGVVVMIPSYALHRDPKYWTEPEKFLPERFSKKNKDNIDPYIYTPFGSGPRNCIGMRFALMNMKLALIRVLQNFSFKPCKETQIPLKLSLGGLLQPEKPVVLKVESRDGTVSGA
CYP3A (printed CYP3A-M), sequence (P08684 2-503 limits assumed): as above

Compound | IC50 (CYP3A-M) | IC50 (CYP2C9) | IC50 (CYP1A2; microsomes) | IC50 (CYP2D6) | IC50 (CYP1A2; [3]) | IC50 (CYP2C19) | other results
4-((2R,3S,4S,5R)-3-(3,4-difluoro-2-(methoxy-d3)phenyl)-4,5-dimethyl-5-(trifluoromethyl) pyrrolidine-2-carboxamido)pyridinamide [Compound 11] | > 50 µM | 41.4 µM | > 50 µM | > 50 µM |  |  | Area under the curve AUC0-t [1]: 15644 ng·h/mL; Clearance CL [1]: 8.05 mL/h/kg; half-life t½ [1]: 57.4 h; Area under the curve AUC0-t ([2]; female SD rats): 23809 ng·h/mL; blood concentration Cmax ([2]; female SD rats): 1850 ng/mL; Area under the curve AUC0-t ([2]; male SD rats): 4656 ng·h/mL; blood concentration Cmax ([2]; male SD rats): 1006 ng/mL
COc1c([C@H]2[C@H](C(=O)Nc3ccc[n+]([O-])c3)N[C@@](C)(C(F)(F)F)[C@H]2C)ccc(F)c1F [Compound 7, 3-((2R,3S,4S,5R)-3-(3,4-difluoro-2-methoxyphenyl)-4,5-dimethyl-5-(trifluoromethyl)pyrrolidine-2-carboxamido)pyridine 1-oxide] |  | > 50 µM |  | > 50 µM | > 50 µM | 2.13 µM | IC50 at 10 min (CYP3A (printed CYP3A-M); probe Midazolam, human liver microsomes 0.2 mg/mL, substrate Midazolam, read-out: IC50 (μM) CYP3A-M): 30.9 µM
COc1c([C@H]2[C@H](C(=O)Nc3cccc(S(N)(=O)=O)c3)N[C@@](C)(C(F)(F)F)[C@H]2C)ccc(F)c1F [Compound 8, (2R,3S,4S,5R)-3-(3,4-difluoro-2-methoxyphenyl)-4,5-dimethyl-aza-(3-aminosulfonylphenyl)-5-(trifluoromethyl) pyrrolidine-2-carboxamide] | 26.2 µM | 22.9 µM | > 50 µM | 41.6 µM |  | 29 µM | 
COc1c([C@H]2[C@H](C(=O)Nc3ccnc(C(N)=O)c3)O[C@@](C)(C(F)(F)F)[C@H]2C)ccc(F)c1F [VX-548, reference compound] |  | 17.4 µM |  | > 50 µM | > 50 µM | 3.74 µM | IC50 at 10 min (CYP3A (printed CYP3A-M); human, microsomes): > 50 µM; AUC(0-t) ([1]; dog, plasma, read-out: Area under the curve AUC0-t): 11100 ng·h/mL; clearance ([1]; dog, plasma, read-out: Clearance CL (converted)): 0.438 mL/min/kg; half-life ([1]; dog, plasma, read-out: half-life t½ (converted)): 1180 min; AUC(0-t) ([2]; female SD rats): 10900 ng·h/mL; Cmax ([2]; female SD rats): 719 ng/mL; AUC(0-t) ([2]; male SD rats): 1210 ng·h/mL; Cmax ([2]; male SD rats): 385 ng/mL
